Assay results as given in patent publication US20240342292A1, “Compounds for the Degradation of EGFR Kinase” (BeiGene Switzerland GmbH, priority 2021, published 2024).

Legend:
[1] = system: Del19/T790M/C797S EGFR; assay: EGFR degradation HTRF assay in H1975-clone #28 (DTC) cells; assay type: cell-based; settings: H1975 # 28 DTC (Del19/T790M/C797S), 16h treatment; for DC50: HTRF; for Dmax (%): maximum percentage of degradation
Outline: (§1)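 Remaining EGFR protein was measured by HTRF (337 nm excitation, 665/620 nm emission) in lysates after overnight antibody incubation. Cells had been exposed for 16 h to an 8-point, 5-fold series starting at 10 uM, and DC50 values were fitted with a Hill equation.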

[2] = biological target: T1, L858R/T790M/C797S EGFR (Homo sapiens, UniProt P00533, C797S/L858R/T790M); assay: EGFR degradation HTRF assay in H1975-clone #25 (LTC) cells; assay type: cell-based; settings: 16h treatment; for DC50: H1975 # 25-LTC (L858R/T790M/C797S), HTRF; for Dmax: NCI-H1975, H1975 # 25-LTC (L858R/T790M/C797S), maximum percentage of degradation
T1 construct: expressed in transfected cells; host or cells: H1975 clone #25 (lentiviral over-expression, endogenous EGFR knocked out by sgRNA)
Outline: as §1

T1 sequence (P00533 25-1210 T790M/C797S/L858R): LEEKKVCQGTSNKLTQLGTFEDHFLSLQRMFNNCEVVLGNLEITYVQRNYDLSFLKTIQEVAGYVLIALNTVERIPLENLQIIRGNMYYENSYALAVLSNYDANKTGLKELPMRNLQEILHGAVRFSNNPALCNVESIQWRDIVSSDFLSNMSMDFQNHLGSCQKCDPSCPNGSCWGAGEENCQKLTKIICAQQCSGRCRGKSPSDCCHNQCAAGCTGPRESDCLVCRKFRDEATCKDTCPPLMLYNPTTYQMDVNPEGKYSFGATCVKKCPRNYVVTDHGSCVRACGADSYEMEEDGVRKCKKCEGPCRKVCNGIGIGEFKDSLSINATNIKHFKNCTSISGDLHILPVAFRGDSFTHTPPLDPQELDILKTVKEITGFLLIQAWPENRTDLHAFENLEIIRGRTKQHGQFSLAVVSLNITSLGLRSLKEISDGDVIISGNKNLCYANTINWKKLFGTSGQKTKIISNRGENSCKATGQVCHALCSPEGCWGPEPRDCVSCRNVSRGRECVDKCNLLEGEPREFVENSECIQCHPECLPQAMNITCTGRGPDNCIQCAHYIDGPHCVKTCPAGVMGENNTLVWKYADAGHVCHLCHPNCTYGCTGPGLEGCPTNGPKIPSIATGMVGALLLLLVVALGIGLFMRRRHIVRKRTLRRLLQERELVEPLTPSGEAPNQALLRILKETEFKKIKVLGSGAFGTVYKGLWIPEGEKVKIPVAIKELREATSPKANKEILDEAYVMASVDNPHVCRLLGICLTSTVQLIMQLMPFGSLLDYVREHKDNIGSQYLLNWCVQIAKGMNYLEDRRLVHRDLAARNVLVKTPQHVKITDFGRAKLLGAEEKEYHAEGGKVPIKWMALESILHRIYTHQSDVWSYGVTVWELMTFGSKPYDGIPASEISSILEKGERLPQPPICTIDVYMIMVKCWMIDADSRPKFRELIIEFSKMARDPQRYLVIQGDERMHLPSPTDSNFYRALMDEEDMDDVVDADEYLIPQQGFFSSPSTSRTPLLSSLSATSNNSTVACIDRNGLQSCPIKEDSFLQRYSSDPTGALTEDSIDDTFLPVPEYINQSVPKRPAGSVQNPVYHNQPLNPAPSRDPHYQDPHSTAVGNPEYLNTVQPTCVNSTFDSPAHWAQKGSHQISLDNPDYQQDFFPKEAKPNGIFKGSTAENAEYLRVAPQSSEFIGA

Row | DC50 [1] | DC50 [2] | Dmax [2] | Structure (SMILES) | Dmax (%) [1]
1 | 0.624 nM | 0.602 nM | 91.7% | Cc1cc2cc(n1)-c1cnn(C)c1OCCC[C@@H](C)CN1/C(=N/C2=O)Nc2ccc(C(=O)N(C)[C@H]3CCN(CCc4cc(F)c([C@H]5CCC(=O)NC5=O)c(F)c4)[C@@H](C)C3)cc21 [Example 267, (R,E)-N—((2S,4S)-1-(4-((R)-2,6-dioxopiperidin-3-yl)-3,5-difluorophenethyl)-2-methylpiperidin-4-yl)-N,1^1,2^6,7-tetramethyl-3-oxo-5^2,5^3-dihydro-1^1H,5^1H-11-oxa-4-aza-5(2,1)-benzo[d]imidazola-2(2,4)-pyridina-1(4,5)-pyrazolacycloundecaphane-5^6-carboxamide] | 76.64%
2 | 0.439 nM | 0.53 nM | 89.8% | Cc1cc2cc(n1)-c1cnn(C)c1OCCC[C@@H](C)CN1/C(=N/C2=O)Nc2ccc(C(=O)N(C)[C@@H]3CCN(CCc4cc(F)c([C@H]5CCC(=O)NC5=O)c(F)c4)[C@H](C)C3)cc21 [Example 268, (R,E)-N—((2R,4R)-1-(4-((R)-2,6-dioxopiperidin-3-yl)-3,5-difluorophenethyl)-2-methylpiperidin-4-yl) -N,1^1,2^6,7-tetramethyl-3-oxo-5^2,5^3-dihydro-1^1H,5^1H-li-oxa-4-aza-5(2,1)-benzo[d]imidazola-2(2,4)-pyridina-1(4,5)-pyrazolacycloundecaphane-5^6-carboxamide] | 81.98%
3 | 0.638 nM | 0.316 nM | 92.7% | Cc1cc2cc(n1)-c1cnn(C)c1OCCC[C@@H](C)CN1/C(=N/C2=O)Nc2ccc(C(=O)N[C@@H]3CCN(CCc4cc(F)c([C@H]5CCC(=O)NC5=O)c(F)c4)[C@H](C)C3)cc21 [Example 269, (R,E)-N—((2R,4R)-1-(4-((R)-2,6-dioxopiperidin-3-yl)-3,5-difluorophenethyl)-2-methylpiperidin-4-yl)-1^1,2^6,7-trimethyl-3-oxo-5^2,5^3-dihydro-1^1H,5^1H-11-oxa-4-aza-5(2,1)-benzo[d]imidazola-2(2,4)-pyridina-1(4,5)-pyrazolacycloundecaphane-5^6-carboxamide] | 82.6%
4 | 0.614 nM | 0.429 nM | 92.5% | Cc1cc2cc(n1)-c1cnn(C)c1OCCC[C@@H](C)CN1/C(=N/C2=O)Nc2ccc(C(=O)N[C@H]3CCN(CCc4cc(F)c([C@H]5CCC(=O)NC5=O)c(F)c4)[C@@H](C)C3)cc21 [Example 270, (R,E)-N—((2S,4S)-1-(4-((R)-2,6-dioxopiperidin-3-yl)-3,5-difluorophenethyl)-2-methylpiperidin-4-yl)-1^1,2^6,7-trimethyl-3-oxo-5^2,5^3-dihydro-1^1H,5^1H-11-oxa-4-aza-5(2,1)-benzo[d]imidazola-2(2,4)-pyridina-1(4,5)-pyrazolacycloundecaphane-5^6-carboxamide] | 81.16%
5 | 1.15 nM | 0.557 nM | 81.2% | Cc1cc2cc(n1)-c1cnn(C)c1OCCC[C@@H](C)CN1/C(=N/C2=O)Nc2ccc(C(=O)N[C@H](C)C3CCN(CCc4cc(F)c([C@H]5CCC(=O)NC5=O)c(F)c4)CC3)cc21 [Example 271, (R,E)-N—((R)-1-(1-(4-((R)-2,6-dioxopiperidin-3-yl)-3,5-difluorophenethyl)piperidin-4-yl)ethyl)-1^1,2^6,7-trimethyl-3-oxo-5^2,5^3-dihydro-1^1H,5^1H-11-oxa-4-aza-5(2,1)-benzo[d]imidazola-2(2,4)-pyridina-1(4,5)-pyrazolacycloundecaphane-5^6-carboxamide] | 70.36%
6 | 1.52 nM | 1.36 nM | 87.2% | Cc1cc2cc(n1)-c1cnn(C)c1OCCC[C@@H](C)CN1/C(=N/C2=O)Nc2ccc(C(=O)N(C)[C@@H](C)C3CCN(CCc4cc(F)c(C5CCC(=O)NC5=O)c(F)c4)CC3)cc21 (stereo partly drawn) [Example 272, (R,E)-N—((S)-1-(1-(4-((R)-2,6-dioxopiperidin-3-yl)-3,5-difluorophenethyl)piperidin-4-yl)ethyl)-N,1,2^6,7-tetramethyl-3-oxo-5^2,5^3-dihydro-1^1H,5^1H-11-oxa-4-aza-5(2,1)-benzo[d]imidazola-2(2,4)-pyridina-1(4,5)-pyrazolacycloundecaphane-5^6-carboxamide] | 76.03%
7 | 0.489 nM | 4.58 nM | 88.8% | Cc1cc2cc(n1)-c1cnn(C)c1OCCC[C@@H](C)CN1/C(=N/C2=O)Nc2ccc(C(=O)N(C)C[C@@H]3CCN(CCc4cc(F)c([C@H]5CCC(=O)NC5=O)c(F)c4)CC3(F)F)cc21 [Example 273, (R,E)-N—(((S)-1-(4-((R)-2,6-dioxopiperidin-3-yl)-3,5-difluorophenethyl)-3,3-difluoropiperidin-4-yl)methyl)-N,1′,2,7-tetramethyl-3-oxo-5^2,5^3-dihydro-1^1H,5^1H-11-oxa-4-aza-5(2,1)-benzo[d]imidazola-2(2,4)-pyridina-1(4,5)-pyrazolacycloundecaphane-5^6-carboxamide] | 66.66%
8 | 0.691 nM | 1.63 nM | 69.2% | Cc1cc2cc(n1)-c1cnn(C)c1OCCC[C@@H](C)CN1/C(=N/C2=O)Nc2ccc(C(=O)N(C)C[C@H]3CCN(CCc4cc(F)c([C@H]5CCC(=O)NC5=O)c(F)c4)CC3(F)F)cc21 [Example 274, (R,E)-N—(((R)-1-(4-((R)-2,6-dioxopiperidin-3-yl)-3,5-difluorophenethyl)-3,3-difluoropiperidin-4-yl)methyl)-N,1^1,2^6,7-tetramethyl-3-oxo-5^2,5^3-dihydro-1^1H,5^1H-11-oxa-4-aza-5(2,1)-benzo[d]imidazola-2(2,4)-pyridina-1(4,5)-pyrazolacycloundecaphane-5^6-carboxamide] | 48.56%
9 | 0.798 nM | 1.01 nM | 88.9% | Cc1cc2cc(n1)-c1cnn(C)c1OCCC[C@@H](C)CN1/C(=N/C2=O)Nc2ccc(C(=O)N(C)CC(F)(F)C3CCN(CCc4cc(F)c([C@H]5CCC(=O)NC5=O)c(F)c4)CC3)cc21 [Example 275, (R,E)-N-(2-(1-(4-((R)-2,6-dioxopiperidin-3-yl)-3,5-difluorophenethyl)piperidin-4-yl)-2,2-difluoroethyl)-N,1^1,2^6,7-tetramethyl-3-oxo-5^2,5^3-dihydro-1^1H,5^1H-11-oxa-4-aza-5(2,1)-benzo[d]imidazola-2(2,4)-pyridina-1(4,5)-pyrazolacycloundecaphane-5^6-carboxamide] | 78.92%
10 | 1.74 nM | 0.592 nM | 88% | Cc1cc2cc(n1)-c1cnn(C)c1OCCC[C@@H](C)CN1/C(=N/C2=O)Nc2ccc(C(=O)N(C)C[C@H]3CCCN(CCc4cc(F)c([C@H]5CCC(=O)NC5=O)c(F)c4)C3)cc21 [Example 276, (R,E)-N—(((S)-1-(4-((R)-2,6-dioxopiperidin-3-yl)-3,5-difluorophenethyl)piperidin-3-yl)methyl)-N,1^1, 2^6,7-tetramethyl-3-oxo-5^2,5^3-dihydro-1^1H,5^1H-11-oxa-4-aza-5(2,1)-benzo[d]imidazola-2(2,4)-pyridina-1(4,5)-pyrazolacycloundecaphane-5^6-carboxamide] | 71.19%
11 | 0.567 nM | 0.804 nM | 74.2% | Cc1cc2cc(n1)-c1cnn(C)c1OCCC[C@@H](C)CN1/C(=N/C2=O)Nc2ccc(C(=O)N(C)C3CCC(N(C)CCc4cc(F)c([C@H]5CCC(=O)NC5=O)c(F)c4)CC3)cc21 (stereo partly drawn) [Example 278, (R,E)-N-(4-((4-((R)-2,6-dioxopiperidin-3-yl)-3,5-difluorophenethyl)(methyl)amino)cyclohexyl)-N,1^1,2^6,7-tetramethyl-3-oxo-5^2,5^3-dihydro-1^1H,5^1H-11-oxa-4-aza-5(2,1)-benzo[d]imidazola-2(2,4)-pyridina-1(4,5)-pyrazolacycloundecaphane-5^6-carboxamide] | 52.21%

Row | Structure (SMILES) | DC50 [1] | DC50 [2] | Dmax [2] | Dmax (%) [1]
12 | Cc1cc2cc(n1)-c1cnn(C)c1OCCC[C@@H](C)CN1/C(=N/C2=O)Nc2ccc(C(=O)N(C)[C@@H]3C[C@H]4CC[C@@H](C3)N4CCc3cc(F)c([C@H]4CCC(=O)NC4=O)c(F)c3)cc21 [Example 265, (R,E)-N—((1R,3S,5S)-8-(4-((R)-2,6-dioxopiperidin-3-yl)-3,5-difluorophenethyl)-8-azabicyclo[3.2.1]octan-3-yl)-N,1^1,2^6,7-tetramethyl-3-oxo-5^2,5^3-dihydro-1^1H,5^1H-11-oxa-4-aza-5(2,1)-benzo[d]imidazola-2(2,4)-pyridina-1(4,5)-pyrazolacycloundecaphane-5^6-carboxamide] | 0.625 nM | 0.246 nM | 90.9% | 79.26%
13 | Cc1cc2cc(n1)-c1cnn(C)c1OCCC[C@@H](C)CN1/C(=N/C2=O)Nc2ccc(C(=O)N(C)C3CC4CCCC(C3)N4CCc3cc(F)c([C@H]4CCC(=O)NC4=O)c(F)c3)cc21 (stereo partly drawn) [Example 266, (7R,E)-N-(9-(4-((R)-2,6-dioxopiperidin-3-yl)-3,5-difluorophenethyl)-9-azabicyclo[3.3.1]nonan-3-yl) -N,1^1,2^6,7-tetramethyl-3-oxo-5^2,5^3-dihydro-1^1H,5^1H-11-oxa-4-aza-5(2,1)-benzo[d]imidazola-2(2,4)-pyridina-1(4,5)-pyrazolacycloundecaphane-5^6-carboxamide] | 0.65 nM | 1.51 nM | 81.4% | 75.93%
